# In the supplement of paper PMC10307832:
# Legend:
# Assay in all cases: relative viability (nuclei count vs DMSO), 5 days (fraction); higher = more cells survive
# [1] = system: HCC-366
# How it was run: (§1)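 Lung cancer cell lines were pin-tool dosed in 1536-well plates on the day after seeding, with either a lone drug or a fixed anchor-drug dose plus five library-drug doses (not always all listed) in √10 steps. Nuclei were counted on 4× images after 5 days. Relative viability is the ratio of treated-well to vehicle-well nuclei counts, with each value a median of duplicate plates.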
# [2] = system: NCI-H2009
# How it was run: as §1
# [3] = system: NCI-H2228
# How it was run: as §1
# [4] = system: NCI-H23
# How it was run: as §1
# [5] = system: NCI-H1944
# How it was run: as §1
# [6] = system: NCI-H2405
# How it was run: as §1
# [7] = system: ABC-1
# How it was run: as §1
# [8] = system: SK-LU-1
# How it was run: as §1
# [9] = system: NCI-H2023
# How it was run: as §1
# [10] = system: UMC-11
# How it was run: as §1
# [11] = system: HCC-15
# How it was run: as §1
# [12] = system: NCI-H1734
# How it was run: as §1
# [13] = system: EMC-BAC-2
# How it was run: as §1
# [14] = system: COR-L23
# How it was run: as §1
# [15] = system: LC-2-ad
# How it was run: as §1
# [16] = system: NCI-H838
# How it was run: as §1
# [17] = system: ChaGo-K-1
# How it was run: as §1
# [18] = system: A-427
# How it was run: as §1
# [19] = system: HARA
# How it was run: as §1
# [20] = system: NCI-H1993
# How it was run: as §1
# [21] = system: HCC-78
# How it was run: as §1
# [22] = system: NCI-H2126
# How it was run: as §1
compound,measurement,setting,value
C=C1C(=O)O[C@@H](CCCCCCCC)[C@@H]1C(=O)O [C-75] + C[C@@H](Oc1cc(-c2cnn(C3CCNCC3)c2)cnc1N)c1c(Cl)ccc(F)c1Cl [Crizotinib] (partner 1 µM),relative viability,[1]; first compound 0.08 µM,0.508
same,relative viability,[1]; first compound 0.253 µM,0.76
same,relative viability,[1]; first compound 0.8 µM,0.5
same,relative viability,[1]; first compound 8 µM,0.509
same,relative viability,[2]; first compound 0.08 µM,1.04
same,relative viability,[2]; first compound 0.253 µM,1.01
same,relative viability,[2]; first compound 0.8 µM,0.987
same,relative viability,[2]; first compound 2.53 µM,0.78
same,relative viability,[2]; first compound 8 µM,0.968
same,relative viability,[3]; first compound 0.08 µM,0.548
same,relative viability,[3]; first compound 0.253 µM,0.472
same,relative viability,[3]; first compound 0.8 µM,0.412
same,relative viability,[3]; first compound 2.53 µM,0.438
same,relative viability,[3]; first compound 8 µM,0.596
same,relative viability,[4]; first compound 0.08 µM,0.509
same,relative viability,[4]; first compound 0.253 µM,0.579
same,relative viability,[4]; first compound 0.8 µM,0.522
same,relative viability,[4]; first compound 2.53 µM,0.507
same,relative viability,[4]; first compound 8 µM,0.534
same,relative viability,[5]; first compound 0.08 µM,1.06
same,relative viability,[5]; first compound 0.253 µM,0.998
same,relative viability,[5]; first compound 0.8 µM,1.05
same,relative viability,[5]; first compound 8 µM,1.03
same,relative viability,[6]; first compound 0.08 µM,0.825
same,relative viability,[6]; first compound 0.253 µM,0.683
same,relative viability,[6]; first compound 0.8 µM,0.796
same,relative viability,[6]; first compound 2.53 µM,0.785
same,relative viability,[6]; first compound 8 µM,0.868
same,relative viability,[7]; first compound 0.08 µM,1.29
same,relative viability,[7]; first compound 0.253 µM,1.81
same,relative viability,[7]; first compound 0.8 µM,0.998
same,relative viability,[7]; first compound 2.53 µM,0.909
same,relative viability,[7]; first compound 8 µM,0.882
same,relative viability,[8]; first compound 0.08 µM,0.801
same,relative viability,[8]; first compound 0.253 µM,0.987
same,relative viability,[8]; first compound 0.8 µM,0.883
same,relative viability,[8]; first compound 2.53 µM,0.907
same,relative viability,[8]; first compound 8 µM,0.655
same,relative viability,[9]; first compound 0.08 µM,0.654
same,relative viability,[9]; first compound 0.253 µM,0.767
same,relative viability,[9]; first compound 0.8 µM,0.698
same,relative viability,[9]; first compound 2.53 µM,0.444
same,relative viability,[9]; first compound 8 µM,0.626
same,relative viability,[10]; first compound 0.08 µM,0.688
same,relative viability,[10]; first compound 0.253 µM,0.625
same,relative viability,[10]; first compound 0.8 µM,0.651
same,relative viability,[10]; first compound 2.53 µM,0.497
same,relative viability,[10]; first compound 8 µM,0.461
same,relative viability,[11]; first compound 0.08 µM,0.82
same,relative viability,[11]; first compound 0.253 µM,0.885
same,relative viability,[11]; first compound 0.8 µM,0.764
same,relative viability,[11]; first compound 2.53 µM,0.699
same,relative viability,[11]; first compound 8 µM,0.835
same,relative viability,[12]; first compound 0.08 µM,0.692
same,relative viability,[12]; first compound 0.253 µM,0.624
same,relative viability,[12]; first compound 0.8 µM,0.618
same,relative viability,[12]; first compound 2.53 µM,0.557
same,relative viability,[12]; first compound 8 µM,0.69
same,relative viability,[13]; first compound 0.08 µM,0.752
same,relative viability,[13]; first compound 0.253 µM,0.731
same,relative viability,[13]; first compound 0.8 µM,0.744
same,relative viability,[13]; first compound 2.53 µM,0.692
same,relative viability,[13]; first compound 8 µM,0.704
same,relative viability,[14]; first compound 0.08 µM,0.669
same,relative viability,[14]; first compound 0.253 µM,0.613
same,relative viability,[14]; first compound 0.8 µM,0.57
same,relative viability,[14]; first compound 2.53 µM,0.703
same,relative viability,[14]; first compound 8 µM,0.642
same,relative viability,[15]; first compound 0.08 µM,0.467
same,relative viability,[15]; first compound 0.253 µM,0.467
same,relative viability,[15]; first compound 0.8 µM,0.369
same,relative viability,[15]; first compound 2.53 µM,0.446
same,relative viability,[15]; first compound 8 µM,0.42
same,relative viability,[16]; first compound 0.08 µM,0.786
same,relative viability,[16]; first compound 0.253 µM,0.561
same,relative viability,[16]; first compound 0.8 µM,0.807
same,relative viability,[16]; first compound 2.53 µM,0.792
same,relative viability,[16]; first compound 8 µM,0.789
same,relative viability,[17]; first compound 0.08 µM,1.03
same,relative viability,[17]; first compound 0.253 µM,0.983
same,relative viability,[17]; first compound 0.8 µM,1.12
same,relative viability,[17]; first compound 2.53 µM,0.818
same,relative viability,[17]; first compound 8 µM,1.08
same,relative viability,[18]; first compound 0.08 µM,0.929
same,relative viability,[18]; first compound 0.253 µM,1.11
same,relative viability,[18]; first compound 0.8 µM,0.883
same,relative viability,[18]; first compound 2.53 µM,0.69
same,relative viability,[18]; first compound 8 µM,0.898
same,relative viability,[19]; first compound 0.08 µM,1
same,relative viability,[19]; first compound 0.253 µM,1.15
same,relative viability,[19]; first compound 0.8 µM,0.944
same,relative viability,[19]; first compound 8 µM,1.05
same,relative viability,[20]; first compound 0.08 µM,0.862
same,relative viability,[20]; first compound 0.253 µM,0.991
same,relative viability,[20]; first compound 0.8 µM,0.891
same,relative viability,[20]; first compound 2.53 µM,0.701
same,relative viability,[20]; first compound 8 µM,0.986
same,relative viability,[21]; first compound 0.08 µM,0.358
same,relative viability,[21]; first compound 0.253 µM,0.338
same,relative viability,[21]; first compound 0.8 µM,0.36
same,relative viability,[21]; first compound 2.53 µM,0.308
same,relative viability,[21]; first compound 8 µM,0.4
same,relative viability,[22]; first compound 0.08 µM,1.04
same,relative viability,[22]; first compound 0.253 µM,1.07
same,relative viability,[22]; first compound 0.8 µM,1.01
same,relative viability,[22]; first compound 2.53 µM,0.735
same,relative viability,[22]; first compound 8 µM,0.972
